Test results as given in PubChem BioAssay AID1745844 (Carcinogenic Potency Database (CPDB), 2022).
“And” between values parts separate entries of the source, which are not always exact repeats. Equal entries are not always repeated. The source made the active and inactive calls. How the calls were made is not given here.

System: rodent lifetime carcinogenesis bioassay, tumor incidence TD50
Experiment: chronic cancer bioassays in animals – CPDB, compiled studies (AID 1745844)
Settings: in feed

Cc1cc(C)c(N)cc1C was tested, and the TD50 (mouse, strain B6C3F1, females, site: any site (literature study), lesion: several types, types named in the paper, dosed 101 weeks, study length 101 weeks) was 22.4 mg/kg/day, the TD50 (mouse, strain B6C3F1, females, site: liver, lesion: hepatocellular adenoma + hepatocellular carcinoma + neoplastic nodule, dosed 101 weeks, study length 101 weeks) was 6.13 mg/kg/day and the TD50 (mouse, strain B6C3F1, females, site: liver, lesion: hepatocellular carcinoma, dosed 101 weeks, study length 101 weeks) was 6.13 mg/kg/day. For the same molecule, the TD50 (mouse, strain B6C3F1, females, site: lung, lesion: alveolar/bronchiolar adenoma + alveolar/bronchiolar carcinoma, dosed 101 weeks, study length 101 weeks) was 47.6 mg/kg/day, the TD50 (mouse, strain B6C3F1, males, site: any site (literature study), lesion: several types, types named in the paper, dosed 101 weeks, study length 101 weeks) was 52.5 mg/kg/day (inactive) and the TD50 (mouse, strain B6C3F1, males, site: liver, lesion: hepatocellular adenoma + hepatocellular carcinoma + neoplastic nodule, dosed 101 weeks, study length 101 weeks) was 14.4 mg/kg/day. The TD50 (mouse, strain CD-1 HaM/ICR, females, site: any site (literature study), lesion: several types, types named in the paper, dosed 77 weeks, study length 98 weeks) was 47.2 mg/kg/day, the TD50 (mouse, strain CD-1 HaM/ICR, females, site: liver, lesion: hepatoma, dosed 77 weeks, study length 98 weeks) was 62.9 mg/kg/day and 62.3 mg/kg/day and the TD50 (mouse, strain CD-1 HaM/ICR, females, site: liver, lesion: several types, types named in the paper, dosed 77 weeks, study length 98 weeks) was 60.4 mg/kg/day. The TD50 (mouse, strain CD-1 HaM/ICR, females, site: lung, lesion: several types, types named in the paper, dosed 77 weeks, study length 98 weeks) was 52.8 mg/kg/day and 64.7 mg/kg/day, the TD50 (mouse, strain CD-1 HaM/ICR, males, site: all sites, lesion: all vascular tumors, dosed 77 weeks, study length 98 weeks) was 260 mg/kg/day and the TD50 (mouse, strain CD-1 HaM/ICR, males, site: any site (literature study), lesion: several types, types named in the paper, dosed 77 weeks, study length 98 weeks) was 40.3 mg/kg/day. The TD50 (mouse, strain CD-1 HaM/ICR, males, site: liver, lesion: hepatoma, dosed 77 weeks, study length 98 weeks) was 46.2 mg/kg/day and 44.2 mg/kg/day, the TD50 (mouse, strain CD-1 HaM/ICR, males, site: liver, lesion: several types, types named in the paper, dosed 77 weeks, study length 98 weeks) was 35.4 mg/kg/day and the TD50 (mouse, strain CD-1 HaM/ICR, males, site: lung, lesion: several types, types named in the paper, dosed 77 weeks, study length 98 weeks) was 40 mg/kg/day and 63 mg/kg/day. For the same molecule, the TD50 (rat, strain Charles River CD (Sprague-Dawley), males, site: any site (literature study), lesion: several types, types named in the paper, dosed 77 weeks, study length 98 weeks) was 37.2 mg/kg/day, the TD50 (rat, strain Charles River CD (Sprague-Dawley), males, site: liver, lesion: hepatoma, dosed 77 weeks, study length 98 weeks) was 98.5 mg/kg/day and the TD50 (rat, strain Charles River CD (Sprague-Dawley), males, site: liver, lesion: several types, types named in the paper, dosed 77 weeks, study length 98 weeks) was 47.9 mg/kg/day. The carcinogen call (rat, strain Charles River CD (Sprague-Dawley), males, site: subcutaneous tissue, lesion: several types, types named in the paper, dosed 77 weeks, study length 98 weeks) was “positive”, the TD50 (rat, strain Fischer 344, females, site: any site (literature study), lesion: several types, types named in the paper, dosed 101 weeks, study length 101 weeks) was 396 mg/kg/day and the TD50 (rat, strain Fischer 344, females, site: liver + lung, lesion: hepatocellular carcinoma + neoplastic nodule + alveolar/bronchiolar adenoma + alveolar/bronchiolar carcinoma, dosed 101 weeks, study length 101 weeks) was 20.4 mg/kg/day. For the same molecule, the TD50 (rat, strain Fischer 344, females, site: liver, lesion: hepatocellular adenoma + hepatocellular carcinoma + neoplastic nodule, dosed 101 weeks, study length 101 weeks) was 27.2 mg/kg/day, the TD50 (rat, strain Fischer 344, females, site: liver, lesion: hepatocellular carcinoma + neoplastic nodule, dosed 101 weeks, study length 101 weeks) was 27.2 mg/kg/day and the TD50 (rat, strain Fischer 344, females, site: liver, lesion: hepatocellular carcinoma, dosed 101 weeks, study length 101 weeks) was 142 mg/kg/day. It also gave a TD50 (rat, strain Fischer 344, females, site: lung, lesion: alveolar/bronchiolar adenoma + alveolar/bronchiolar carcinoma, dosed 101 weeks, study length 101 weeks) of 88.1 mg/kg/day, a TD50 (rat, strain Fischer 344, males, site: any site (literature study), lesion: several types, types named in the paper, dosed 101 weeks, study length 101 weeks) of 138 mg/kg/day and a TD50 (rat, strain Fischer 344, males, site: liver, lesion: bile duct carcinoma, dosed 101 weeks, study length 101 weeks) of 268 mg/kg/day. For the same molecule, the TD50 (rat, strain Fischer 344, males, site: liver, lesion: hepatocellular adenoma + hepatocellular carcinoma + neoplastic nodule, dosed 101 weeks, study length 101 weeks) was 43.8 mg/kg/day, the TD50 (rat, strain Fischer 344, males, site: liver, lesion: hepatocellular carcinoma + neoplastic nodule, dosed 101 weeks, study length 101 weeks) was 43.8 mg/kg/day and the TD50 (rat, strain Fischer 344, males, site: liver, lesion: hepatocellular carcinoma, dosed 101 weeks, study length 101 weeks) was 71.8 mg/kg/day. It also gave a TD50 (rat, strain Fischer 344, males, site: lung, lesion: alveolar/bronchiolar adenoma + alveolar/bronchiolar carcinoma, dosed 101 weeks, study length 101 weeks) of 180 mg/kg/day.

CC(C)(C)NC[C@H](O)COc1cccc2c1CCCC2=O was tested, and the TD50 (mouse, strain CF-1, females, site: liver, lesion: hepatoma, dosed 78 weeks, study length 78 weeks) was 5010 mg/kg/day, the TD50 (mouse, strain CF-1, females, site: lung, lesion: alveogenic adenocarcinoma, dosed 78 weeks, study length 78 weeks) was 2500 mg/kg/day and the TD50 (mouse, strain CF-1, females, site: uterus, lesion: leiomyoma, dosed 78 weeks, study length 78 weeks) was 1220 mg/kg/day. It also gave a TD50 (rat, strain Wistar albino, females, site: liver, lesion: hepatoma, benign, dosed 104 weeks, study length 104 weeks) of 2360 mg/kg/day, a TD50 (rat, strain Wistar albino, females, site: mammary gland, lesion: fibroadenoma, dosed 104 weeks, study length 104 weeks) of 71 mg/kg/day and a TD50 (rat, strain Wistar albino, males, site: liver, lesion: hepatoma, benign, dosed 104 weeks, study length 104 weeks) of 982 mg/kg/day. It also gave a TD50 (rat, strain Wistar albino, males, site: pituitary gland, lesion: adenoma, dosed 104 weeks, study length 104 weeks) of 71.9 mg/kg/day.
